Among the test systems are Bacillus cereus; Staphylococcus aureus; Streptococcus uberis; Leuconostoc lactis; Listeria innocua; Escherichia coli; Micrococcus luteus; Pasteurella multocida; Streptococcus mutans.
What all share (experiment): ≥ marks a high value that may be exact or a test limit, other limits are often not marked, values filed in µg/mL are converted to µM
In test [1] the test system is Staphylococcus aureus ATCC 25923.
In test [2] the test system is Candida albicans ATCC 20032.
Test [3] relates to Bacillus subtilis ATCC 6633.
Test [4] has as its system Escherichia coli ATCC 25922.
The subject of test [5] is Staphylococcus epidermidis.
In test [6] the test system is Batrachochytrium dendrobatidis.
Test [7] concerns Veillonella atypica PK1910.
The test system of test [8] is Streptococcus sanguinis NY101.
The subject of test [9] is Lacticaseibacillus casei ATCC 4646.
Test [10] has as its system Streptococcus mitis ATCC 903.
Test [11] has as its system Streptococcus gordonii Challis DL1.

As a reminder, the MIC is the least concentration at which growth counts as inhibited.

≈ marks a conversion by molar mass, not a printed value.

Take `CC[C@H](C)[C@@H]1NC(=O)[C@H](CO)NC(=O)[C@H](CCCCN)NC(=O)[C@H]([C@@H](C)O)NC(=O)[C@H](Cc2c[nH]c3ccccc23)NC(=O)[C@@H](NC(=O)CNC(=O)[C@H](CCCCN)NC(=O)[C@H](CC(C)C)NC(=O)[C@H](C)NC(=O)[C@H](C)N)CSSC[C@@H](C(=O)N[C@@H](CO)C(=O)NCC(=O)N[C@@H](CCCCN)C(=O)N[C@@H](CCCN=C(N)N)C(=O)O)NC(=O)[C@@H]2CCCN2C(=O)[C@H](CCCCN)NC(=O)[C@@H]2CCCN2C(=O)[C@@H]2CCCN2C1=O` [AALKGCWTKSIPPKPCSGKR]: the MIC in [1] came to 11.7 µM (≈ 24.9 µg/mL); in test [2] it was 23.4 µM (≈ 49.8 µg/mL).
In the case of `CC[C@H](C)[C@H](NC(=O)CN)C(=O)NCC(=O)NCC(=O)N[C@@H](CCCCN)C(=O)N[C@H](C(=O)N[C@@H](CC(C)C)C(=O)NCC(=O)NCC(=O)N[C@@H](CC(C)C)C(=O)N[C@@H](CCCN=C(N)N)C(=O)N[C@H](C(=O)N[C@@H](C)C(=O)N[C@@H](CC(C)C)C(=O)N[C@@H](CCCCN)C(=O)NCC(=O)N[C@@H](C)C(=O)N[C@@H](C)C(=O)N[C@@H](CCCCN)C(=O)N[C@@H](CCC(=O)O)C(=O)N[C@@H](CC(C)C)C(=O)N[C@@H](C)C(=O)N[C@@H](C)C(=O)N[C@H](C(=O)N[C@@H](Cc1ccc(O)cc1)C(=O)N[C@@H](CC(C)C)C(=O)N[C@@H](Cc1cnc[nH]1)C(N)=O)[C@@H](C)O)[C@@H](C)O)[C@@H](C)CC` [GIGGKILGGLRTALKGAAKELAATYLH], the MIC in test [1] was 1.75 µM (≈ 4.7 µg/mL); in test [3] it was 28 µM (≈ 75 µg/mL); in [2], not below 37.3 µM; in [4] it was 3.51 µM (≈ 9.4 µg/mL).
In the case of `CC[C@H](C)[C@H](NC(=O)[C@@H](NC(=O)[C@H](C)NC(=O)[C@H](C)NC(=O)[C@@H](NC(=O)[C@H](CCCCN)NC(=O)[C@H](CCCCN)NC(=O)[C@@H](NC(=O)[C@@H](NC(=O)[C@H](C)NC(=O)[C@H](Cc1ccccc1)NC(=O)[C@H](CC(C)C)NC(=O)CN)C(C)C)[C@@H](C)CC)C(C)C)C(C)C)C(=O)N[C@@H](CCCCN)C(=O)N[C@@H](CCCCN)C(=O)N[C@@H](CC(C)C)C(N)=O` [GLFAVIKKVAAVIKKL], the MIC was not below 58.9 µM with Bacillus cereus; 14.7 µM (≈ 25 µg/mL) in the test with Staphylococcus aureus; 7.07 µM (≈ 12 µg/mL) in the test with Streptococcus uberis; 0.883 µM (≈ 1.5 µg/mL) in the test with Leuconostoc lactis; 7.07 µM (≈ 12 µg/mL) against Listeria innocua; 1.77 µM (≈ 3 µg/mL) in [5]. Further, the MIC in the test with Escherichia coli was 58.9 µM (≈ 99.9 µg/mL); against Micrococcus luteus, 14.7 µM (≈ 25 µg/mL); in [6] it was not below 141 µM; in the test on Pasteurella multocida, not below 58.9 µM.
As for `NCCCC[C@H](NC(=O)[C@H](Cc1ccccc1)NC(=O)CNC(=O)CNC(=O)CNC(=O)[C@H](Cc1ccccc1)NC(=O)[C@H](Cc1c[nH]c2ccccc12)NC(=O)[C@H](CCCN=C(N)N)NC(=O)[C@H](Cc1c[nH]c2ccccc12)NC(=O)[C@H](CCCN=C(N)N)NC(=O)[C@H](Cc1c[nH]c2ccccc12)NC(=O)[C@@H](N)CCCN=C(N)N)C(=O)N[C@@H](CCCCN)C(=O)N[C@@H](Cc1ccccc1)C(=O)N[C@@H](Cc1c[nH]c2ccccc12)C(=O)N[C@@H](CCCCN)C(=O)N[C@@H](Cc1c[nH]c2ccccc12)C(=O)N[C@@H](Cc1ccccc1)C(=O)N[C@@H](CCCN=C(N)N)C(=O)N[C@@H](CCCN=C(N)N)C(=O)N[C@@H](Cc1ccccc1)C(N)=O` [RWRWRWFGGGFKKFWKWFRRF], the MIC amounted to 2.65 µM (≈ 8 µg/mL) in test [7]; 2.65 µM (≈ 8 µg/mL) in test [8]; 1.87 µM (≈ 5.66 µg/mL) in the test with Streptococcus mutans; 2.65 µM (≈ 8 µg/mL) in test [9]; 21.2 µM (≈ 64 µg/mL) in [10]; 5.3 µM (≈ 16 µg/mL) in test [11].

Values taken from DBAASP.
